Calls of active or inactive are those of the source.
Columns and labels:
[1] = molecular target: T1, cGMP-dependent protein kinase 1 (Homo sapiens, UniProt Q13976)
T1 sequence (Q13976 whole entry): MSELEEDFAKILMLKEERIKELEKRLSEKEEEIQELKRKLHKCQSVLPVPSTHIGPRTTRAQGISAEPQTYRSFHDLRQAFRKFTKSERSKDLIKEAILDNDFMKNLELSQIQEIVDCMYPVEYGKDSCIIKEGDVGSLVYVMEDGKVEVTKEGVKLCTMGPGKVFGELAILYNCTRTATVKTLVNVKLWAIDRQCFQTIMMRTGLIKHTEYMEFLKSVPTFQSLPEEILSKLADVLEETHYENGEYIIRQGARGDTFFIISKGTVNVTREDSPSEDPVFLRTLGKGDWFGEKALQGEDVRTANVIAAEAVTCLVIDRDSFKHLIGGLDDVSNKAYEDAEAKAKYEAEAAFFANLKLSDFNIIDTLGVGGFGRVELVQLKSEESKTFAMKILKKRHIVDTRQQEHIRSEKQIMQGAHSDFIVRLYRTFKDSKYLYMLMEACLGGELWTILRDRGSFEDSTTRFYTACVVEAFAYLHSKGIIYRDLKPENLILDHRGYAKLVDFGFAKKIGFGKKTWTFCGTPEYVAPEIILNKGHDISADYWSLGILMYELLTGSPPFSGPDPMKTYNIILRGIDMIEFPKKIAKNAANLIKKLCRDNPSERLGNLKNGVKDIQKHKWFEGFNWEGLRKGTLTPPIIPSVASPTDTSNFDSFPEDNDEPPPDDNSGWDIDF

[2] = molecular target: T2, AarF domain-containing protein kinase 1 (Homo sapiens, UniProt Q86TW2)
T2 sequence (Q86TW2 whole entry): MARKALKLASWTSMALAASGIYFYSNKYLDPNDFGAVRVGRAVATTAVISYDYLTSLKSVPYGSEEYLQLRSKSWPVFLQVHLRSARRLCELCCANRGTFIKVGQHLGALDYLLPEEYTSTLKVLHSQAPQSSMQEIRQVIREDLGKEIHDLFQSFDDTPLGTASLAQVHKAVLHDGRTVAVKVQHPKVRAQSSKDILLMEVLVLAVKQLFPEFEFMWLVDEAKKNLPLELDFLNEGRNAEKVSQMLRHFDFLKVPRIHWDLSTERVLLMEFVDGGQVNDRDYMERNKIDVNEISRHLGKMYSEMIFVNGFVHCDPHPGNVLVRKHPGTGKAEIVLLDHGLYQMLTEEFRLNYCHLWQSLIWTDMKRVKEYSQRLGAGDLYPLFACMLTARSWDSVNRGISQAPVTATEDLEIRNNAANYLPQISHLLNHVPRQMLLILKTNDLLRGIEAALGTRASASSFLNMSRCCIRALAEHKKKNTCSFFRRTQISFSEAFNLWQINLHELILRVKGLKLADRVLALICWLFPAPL

[3] = molecular target: Chromodomain-helicase-DNA-binding protein 4 (Homo sapiens, UniProt Q14839)
Pyridoxal kinase = molecular target: T3, Pyridoxal kinase (Homo sapiens, UniProt O00764)
T3 sequence (O00764 whole entry): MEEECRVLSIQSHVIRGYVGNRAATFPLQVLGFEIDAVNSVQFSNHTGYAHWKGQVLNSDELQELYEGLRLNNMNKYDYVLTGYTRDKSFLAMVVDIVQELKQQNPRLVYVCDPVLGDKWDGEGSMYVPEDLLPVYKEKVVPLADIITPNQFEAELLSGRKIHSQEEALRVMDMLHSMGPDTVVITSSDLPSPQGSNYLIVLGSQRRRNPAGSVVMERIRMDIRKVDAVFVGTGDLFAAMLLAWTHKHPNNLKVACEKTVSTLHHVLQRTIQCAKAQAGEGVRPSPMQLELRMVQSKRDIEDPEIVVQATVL

[4] = molecular target: T4, Structural maintenance of chromosomes protein 1A (Homo sapiens, UniProt Q14683)
T4 sequence (Q14683 whole entry): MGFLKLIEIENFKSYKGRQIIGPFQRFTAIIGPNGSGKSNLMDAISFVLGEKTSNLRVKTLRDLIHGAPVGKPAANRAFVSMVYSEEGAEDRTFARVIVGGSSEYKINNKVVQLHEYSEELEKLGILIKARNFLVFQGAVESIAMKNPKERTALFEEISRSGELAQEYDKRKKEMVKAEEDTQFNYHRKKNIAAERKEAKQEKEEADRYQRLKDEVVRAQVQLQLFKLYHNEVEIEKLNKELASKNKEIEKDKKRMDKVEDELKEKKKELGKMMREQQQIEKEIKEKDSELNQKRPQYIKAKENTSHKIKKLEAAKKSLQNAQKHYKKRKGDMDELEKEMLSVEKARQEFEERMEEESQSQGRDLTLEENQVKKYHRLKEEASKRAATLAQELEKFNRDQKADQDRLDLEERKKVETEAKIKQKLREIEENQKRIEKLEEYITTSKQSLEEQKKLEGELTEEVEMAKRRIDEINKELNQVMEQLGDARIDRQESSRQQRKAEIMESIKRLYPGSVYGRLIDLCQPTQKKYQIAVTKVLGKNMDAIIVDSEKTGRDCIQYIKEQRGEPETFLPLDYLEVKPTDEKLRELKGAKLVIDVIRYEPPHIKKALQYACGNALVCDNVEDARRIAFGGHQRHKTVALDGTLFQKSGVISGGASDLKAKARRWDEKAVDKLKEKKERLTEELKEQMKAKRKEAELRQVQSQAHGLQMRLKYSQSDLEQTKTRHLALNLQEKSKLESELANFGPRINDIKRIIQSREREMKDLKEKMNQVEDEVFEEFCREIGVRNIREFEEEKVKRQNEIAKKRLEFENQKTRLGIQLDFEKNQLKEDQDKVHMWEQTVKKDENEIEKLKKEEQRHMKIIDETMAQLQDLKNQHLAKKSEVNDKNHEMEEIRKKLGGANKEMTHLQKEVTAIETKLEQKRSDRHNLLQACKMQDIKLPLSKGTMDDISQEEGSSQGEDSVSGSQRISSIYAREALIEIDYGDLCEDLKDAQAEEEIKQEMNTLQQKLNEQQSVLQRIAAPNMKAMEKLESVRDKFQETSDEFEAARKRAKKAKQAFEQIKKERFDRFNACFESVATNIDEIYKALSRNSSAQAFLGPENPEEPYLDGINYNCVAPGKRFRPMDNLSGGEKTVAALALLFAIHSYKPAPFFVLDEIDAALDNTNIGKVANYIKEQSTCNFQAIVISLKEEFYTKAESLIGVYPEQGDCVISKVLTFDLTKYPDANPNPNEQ

GTP-binding protein 4 = GTP-binding protein 4 (Homo sapiens, UniProt Q9BZE4)
Further: in the data inactive means no Kd found up to 30 µM.

Chromodomain-helicase-DNA-binding protein 4, sequence (Q14839 whole entry): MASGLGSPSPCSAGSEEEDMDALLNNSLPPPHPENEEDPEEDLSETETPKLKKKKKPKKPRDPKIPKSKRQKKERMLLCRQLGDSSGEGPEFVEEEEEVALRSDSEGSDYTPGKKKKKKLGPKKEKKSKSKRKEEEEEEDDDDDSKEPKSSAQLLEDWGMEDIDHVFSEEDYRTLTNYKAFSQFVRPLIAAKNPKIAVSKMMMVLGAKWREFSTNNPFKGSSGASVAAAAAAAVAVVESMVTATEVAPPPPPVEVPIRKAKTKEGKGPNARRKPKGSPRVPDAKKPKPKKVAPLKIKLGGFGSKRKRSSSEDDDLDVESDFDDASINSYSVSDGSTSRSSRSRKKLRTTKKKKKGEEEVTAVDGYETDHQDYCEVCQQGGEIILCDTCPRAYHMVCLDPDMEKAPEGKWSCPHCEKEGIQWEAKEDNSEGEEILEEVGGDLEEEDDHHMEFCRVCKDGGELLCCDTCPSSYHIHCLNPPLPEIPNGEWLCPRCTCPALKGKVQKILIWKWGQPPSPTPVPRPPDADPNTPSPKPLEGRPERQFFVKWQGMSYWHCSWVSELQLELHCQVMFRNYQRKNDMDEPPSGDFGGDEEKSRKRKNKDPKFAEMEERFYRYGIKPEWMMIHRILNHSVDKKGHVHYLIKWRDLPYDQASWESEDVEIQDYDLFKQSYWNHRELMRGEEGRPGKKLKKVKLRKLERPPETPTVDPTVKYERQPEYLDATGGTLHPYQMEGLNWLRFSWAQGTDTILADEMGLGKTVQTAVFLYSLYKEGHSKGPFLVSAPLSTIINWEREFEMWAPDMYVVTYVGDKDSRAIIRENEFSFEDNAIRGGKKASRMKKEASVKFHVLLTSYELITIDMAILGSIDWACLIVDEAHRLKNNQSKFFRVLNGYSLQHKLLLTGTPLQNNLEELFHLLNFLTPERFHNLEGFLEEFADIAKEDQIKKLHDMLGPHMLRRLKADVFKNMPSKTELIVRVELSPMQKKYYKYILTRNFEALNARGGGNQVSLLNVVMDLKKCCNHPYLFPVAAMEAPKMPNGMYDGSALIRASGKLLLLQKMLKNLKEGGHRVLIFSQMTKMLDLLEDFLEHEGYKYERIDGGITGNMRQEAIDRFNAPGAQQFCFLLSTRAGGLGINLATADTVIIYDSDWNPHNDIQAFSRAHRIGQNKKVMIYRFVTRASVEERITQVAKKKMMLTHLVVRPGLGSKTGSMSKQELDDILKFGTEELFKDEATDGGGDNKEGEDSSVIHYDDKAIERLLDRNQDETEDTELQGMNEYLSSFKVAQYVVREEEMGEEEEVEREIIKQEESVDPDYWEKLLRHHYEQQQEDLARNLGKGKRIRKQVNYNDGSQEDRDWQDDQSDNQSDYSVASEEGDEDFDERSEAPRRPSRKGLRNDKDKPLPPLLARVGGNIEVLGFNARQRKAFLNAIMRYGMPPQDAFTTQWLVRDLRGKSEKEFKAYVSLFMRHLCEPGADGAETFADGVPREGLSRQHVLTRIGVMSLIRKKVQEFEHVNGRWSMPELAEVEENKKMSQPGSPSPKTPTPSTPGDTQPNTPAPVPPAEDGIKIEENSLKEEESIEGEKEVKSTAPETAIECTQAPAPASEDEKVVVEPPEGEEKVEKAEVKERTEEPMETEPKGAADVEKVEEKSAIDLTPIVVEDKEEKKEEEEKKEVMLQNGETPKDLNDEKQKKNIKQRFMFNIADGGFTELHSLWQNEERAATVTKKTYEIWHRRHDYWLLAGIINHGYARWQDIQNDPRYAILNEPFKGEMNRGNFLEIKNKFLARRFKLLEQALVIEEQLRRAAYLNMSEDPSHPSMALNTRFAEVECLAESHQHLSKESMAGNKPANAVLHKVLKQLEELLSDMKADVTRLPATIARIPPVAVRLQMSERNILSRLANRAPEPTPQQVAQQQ

| Structure (SMILES) | Kd [1] | Kd [2] | Kd [3] | Kd (Pyridoxal kinase) | Kd [4] | Kd (GTP-binding protein 4) |
| --- | --- | --- | --- | --- | --- | --- |
| COc1cc2nccc(Oc3ccc(NC(=O)C4(C(=O)Nc5ccc(F)cc5)CC4)cc3)c2cc1OC [CABOZANTINIB] | > 30 µM (inactive) | > 30 µM (inactive) | > 30 µM (inactive) | > 30 µM (inactive) | > 30 µM (inactive) | > 30 µM (inactive) |
| CN(c1ncccc1CNc1nc(Nc2ccc3c(c2)CC(=O)N3)ncc1C(F)(F)F)S(C)(=O)=O [PF-00562271] | – | > 30 µM (inactive) | > 30 µM (inactive) | > 30 µM (inactive) | > 30 µM (inactive) | > 30 µM (inactive) |
| COc1cc2c(Oc3ccc4[nH]c(C)cc4c3F)ncnc2cc1OCCCN1CCCC1 [CEDIRANIB] | – | > 30 µM (inactive) | > 30 µM (inactive) | > 30 µM (inactive) | > 30 µM (inactive) | > 30 µM (inactive) |
| Cc1cc(-c2cc(OC(=O)c3ccccc3)ccc2Cl)cc2nnc(Nc3ccc(OCCN4CCCC4)cc3)nc12 [TG100-801] | > 30 µM (inactive) | > 30 µM (inactive) | – | > 30 µM (inactive) | > 30 µM (inactive) | > 30 µM (inactive) |
| N#CCNC(=O)c1ccc(-c2ccnc(Nc3ccc(N4CCOCC4)cc3)n2)cc1 [MOMELOTINIB] | > 30 µM (inactive) | 0.217 µM | – | > 30 µM (inactive) | > 30 µM (inactive) | > 30 µM (inactive) |
| CC1(C)CNc2cc(NC(=O)c3cccnc3NCc3ccncc3)ccc21 [MOTESANIB] | – | > 30 µM (inactive) | > 30 µM (inactive) | > 30 µM (inactive) | > 30 µM (inactive) | > 30 µM (inactive) |
| Cc1c(NC(=O)OC[C@@H]2COCCN2)cn2ncnc(Nc3ccc4c(cnn4Cc4cccc(F)c4)c3)c12 [AC-480] | > 30 µM (inactive) | > 30 µM (inactive) | > 30 µM (inactive) | > 30 µM (inactive) | – | > 30 µM (inactive) |
| C=CCN(/C=C1/C(=O)O[C@H](COC)[C@@]2(C)C1=C(O)C(=O)C1=C2[C@H](OC(C)=O)C[C@]2(C)C(=O)CC[C@@H]12)CC=C [SONOLISIB] | > 30 µM (inactive) | > 30 µM (inactive) | – | > 30 µM (inactive) | – | > 30 µM (inactive) |
| CCOc1ccn(-c2ccc(F)cc2)c(=O)c1C(=O)Nc1ccc(Oc2ccnc(N)c2Cl)c(F)c1 [BMS-777607] | > 30 µM (inactive) | > 30 µM (inactive) | > 30 µM (inactive) | > 30 µM (inactive) | > 30 µM (inactive) | – |
| O=C(O)c1ccc2c(c1)nc(Nc1cccc(Cl)c1)c1ccncc12 [SILMITASERTIB] | > 30 µM (inactive) | > 30 µM (inactive) | > 30 µM (inactive) | > 30 µM (inactive) | > 30 µM (inactive) | – |
| CN(C)C/C=C/C(=O)Nc1cc2c(Nc3ccc(F)c(Cl)c3)ncnc2cc1O[C@H]1CCOC1 [AFATINIB] | – | > 30 µM (inactive) | > 30 µM (inactive) | > 30 µM (inactive) | – | > 30 µM (inactive) |
| NC(=O)c1ccc(N(C(N)=O)c2c(F)cccc2F)nc1-c1ccc(F)cc1F [VX-702] | > 30 µM (inactive) | > 30 µM (inactive) | – | > 30 µM (inactive) | > 30 µM (inactive) | > 30 µM (inactive) |
| COc1cc2ncnc(Nc3ccc(F)c(Cl)c3)c2cc1NC(=O)/C=C/CN1CCCCC1 [DACOMITINIB ANHYDROUS] | > 30 µM (inactive) | > 30 µM (inactive) | > 30 µM (inactive) | > 30 µM (inactive) | – | > 30 µM (inactive) |
| COc1cc(F)c(F)c(Nc2ccc(I)cc2F)c1NS(=O)(=O)C1(C[C@H](O)CO)CC1 [REFAMETINIB] | > 30 µM (inactive) | 0.778 µM | – | > 30 µM (inactive) | – | > 30 µM (inactive) |
| Cn1cnc2c(F)c(Nc3ccc(Br)cc3Cl)c(C(=O)NOCCO)cc21 [SELUMETINIB] | – | > 30 µM (inactive) | > 30 µM (inactive) | > 30 µM (inactive) | 0.365 µM | > 30 µM (inactive) |
| COc1cc2c(N3CCN(C(=O)Nc4ccc(OC(C)C)cc4)CC3)ncnc2cc1OCCCN1CCCCC1 [TANDUTINIB] | – | > 30 µM (inactive) | > 30 µM (inactive) | > 30 µM (inactive) | – | > 30 µM (inactive) |
| O=S(=O)(c1cccc2cnccc12)N1CCCNCC1 [FASUDIL] | – | > 30 µM (inactive) | > 30 µM (inactive) | > 30 µM (inactive) | > 30 µM (inactive) | > 30 µM (inactive) |
| CC1(COc2ccc3c(c2)ncn3-c2ccc3cccc(N4CCC(N)CC4)c3n2)COC1 [CRENOLANIB] | > 30 µM (inactive) | > 30 µM (inactive) | – | > 30 µM (inactive) | > 30 µM (inactive) | > 30 µM (inactive) |
| C[C@@]1(C(=O)Nc2ccc(F)nc2)CCCN1c1nc(Nc2cc(C3CC3)n[nH]2)c2cccn2n1 [BMS-754807] | – | > 30 µM (inactive) | > 30 µM (inactive) | > 30 µM (inactive) | > 30 µM (inactive) | > 30 µM (inactive) |
| c1cc(OCCN2CCCCC2)cc(-c2n[nH]c3ccc(-c4nc[nH]n4)cc23)c1 [CC-401] | > 30 µM (inactive) | > 30 µM (inactive) | > 30 µM (inactive) | > 30 µM (inactive) | – | > 30 µM (inactive) |
| O=c1[nH]c([C@@H]2CCCN2)nc2c1oc1ccc(Cl)cc12 | > 30 µM (inactive) | > 30 µM (inactive) | > 30 µM (inactive) | > 30 µM (inactive) | – | > 30 µM (inactive) |
| CC(C)CC(=O)Nc1[nH]nc2c1CN(C(=O)C1CCN(C)CC1)C2(C)C [PHA-793887] | – | > 30 µM (inactive) | > 30 µM (inactive) | > 30 µM (inactive) | > 30 µM (inactive) | > 30 µM (inactive) |
| C[C@]1(O)C[C@@H](c2nc(-c3ccc4ccc(-c5ccccc5)nc4c3)c3c(N)nccn32)C1 [LINSITINIB] | – | > 30 µM (inactive) | > 30 µM (inactive) | > 30 µM (inactive) | > 30 µM (inactive) | > 30 µM (inactive) |

From ChEMBL document CHEMBL3991601, “The target landscape of clinical kinase drugs” (Science, 2017)
